Laboratory results as given in paper PMC5121526, “Chemerin Elicits Potent Constrictor Actions via Chemokine‐Like Receptor 1 (CMKLR1), not G‐Protein‐Coupled Receptor 1 (GPR1), in Human and Rat Vasculature” (Journal of the American Heart Association: Cardiovascular …, 2016).
Ends that are not written are not given here.

Experiments:
Type in all cases: cell-based
human CMKLR1 [1] = molecular target: T1, human CMKLR1 (Homo sapiens, UniProt Q99788); assay: β‐Arrestin recruitment at CMKLR1
T1 construct: host or cells: CHO-K1
T1 sequence (Q99788 1-373): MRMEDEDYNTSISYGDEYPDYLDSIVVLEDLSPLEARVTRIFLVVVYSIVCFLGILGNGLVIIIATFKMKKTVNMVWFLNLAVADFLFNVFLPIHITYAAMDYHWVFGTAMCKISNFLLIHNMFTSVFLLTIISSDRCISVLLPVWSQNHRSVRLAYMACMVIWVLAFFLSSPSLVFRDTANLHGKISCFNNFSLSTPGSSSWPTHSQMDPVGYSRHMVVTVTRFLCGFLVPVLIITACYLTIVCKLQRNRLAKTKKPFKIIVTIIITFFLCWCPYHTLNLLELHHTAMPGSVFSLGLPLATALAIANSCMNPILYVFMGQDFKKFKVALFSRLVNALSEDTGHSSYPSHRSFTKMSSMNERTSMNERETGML
Protocol: (§1) β‐Arrestin recruitment (CMKLR1 and GPR1) and cAMP assays (CMKLR1; DiscoverX, Fremont, CA) were carried out with CHO‐K1 cells expressing either human CMKLR1 or GPR1, according to the manufacturer's instructions. […] Data were subsequently normalized to the maximum response to C13 used as the reference agonists in each assay.

human GPR1 = molecular target: T2, human GPR1 (Homo sapiens, UniProt P46091); assay: β‐Arrestin recruitment at GPR1
T2 construct: host or cells: CHO-K1
T2 sequence (P46091 1-355): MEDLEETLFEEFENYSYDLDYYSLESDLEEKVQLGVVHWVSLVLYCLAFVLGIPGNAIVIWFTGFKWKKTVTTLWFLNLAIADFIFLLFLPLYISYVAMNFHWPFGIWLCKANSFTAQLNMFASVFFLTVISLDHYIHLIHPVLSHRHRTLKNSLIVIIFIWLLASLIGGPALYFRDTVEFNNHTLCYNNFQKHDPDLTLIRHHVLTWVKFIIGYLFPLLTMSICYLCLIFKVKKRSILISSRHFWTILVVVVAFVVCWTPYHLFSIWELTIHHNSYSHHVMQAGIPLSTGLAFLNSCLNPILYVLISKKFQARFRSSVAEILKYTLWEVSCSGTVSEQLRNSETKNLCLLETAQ
Protocol: as §1

human CMKLR1 [2] = molecular target: T1, human CMKLR1; assay: cAMP inhibition at CMKLR1; details: inhibition of forskolin‐evoked cAMP accumulation, CHO‐K1 cells, n: Chemerin 3, C9 4, C13 3, mean±SEM
Protocol: as §1

pD2 (human CMKLR1 [1]; β‐arrestin recruitment, CHO‐K1 cells, CMKLR1, n: Chemerin 3, C9 3, C13 6, mean±SEM) | pD2 (human GPR1; β‐arrestin recruitment, CHO‐K1 cells, GPR1, n: Chemerin 3, C9 7, C13 9, mean±SEM) | pD2 (human CMKLR1 [2]) | Substance | EC50 (human CMKLR1 [1]) | Emax (human CMKLR1 [1]) | EC50 (human GPR1) | Emax (human GPR1) | EC50 (human CMKLR1 [2]; read-out: pD2 (converted))
9.37±0.05 | 9.05±0.09 | 8.45±0.10 | Chemerin: Human recombinant chemerin(21–157) purchased from R&D Systems |  |  |  |  | 
 |  |  | PHSFYFPGQFAFS [C13] | 70.8 nM | 94 ± 2% | 2.24 nM | 97 ± 3% | 0.759 nM
